{"source": "patent US6566120B2", "about": "(Massachusetts Institute of Technology, priority 1995, dated 2003)", "key": {"[1]": {"system": "Actinomadura hydroxylase", "experiment": "Effect of various factors on conversion of compactin to pravastatin in cell free extracts of Actinomadura", "format": "biochemical, Actinomadura ATCC 55678", "details": "for CP: compactin remaining"}, "[2]": {"system": "strain 2966", "experiment": "Antibiotic sensitivity of strain 2966 (taxonomic description)", "format": "cell-based, Actinomadura", "description": "Description of strain 2966: Cell wall analysis: Whole cell hydrolysates contain meso-diaminopimelic acid (DAP) and madurose. Morphology: Strain 2966 produces an extensively branched, non-fragmenting and dense substrate mycelium. The aerial mycelium is very well developed on yeast malt extract agar, oatmeal agar, N-Z Amine with soluble starch and glucose agar and absent on ISP-4, ISP-5 and ISP-7 media. Spore chains noticeably exceed the diameter of the hyphae which is characteristic for Actinomadura strains and distinguish them from Streptomyces. The presence of meso-DAP is another distinguishing feature. Spores of strain 2966 have a round shape unlike glycomyces species. No special morphological structures were observed either on the substrate mycelium or aerial mycelium. The color of the aerial mycelium is white and yellow-brown for substrate mycelium. No soluble or melanin pigments are formed. Mycelium is not sensitive to pH changes. Carbon source utilization is very poor for glucose, arabinose, D-fructose, D-mannitol, raffinose, rhamnose, sucrose, xylose, galactose and there is only a trace of growth with i-inositol, salicin or on control agar. […] Of the meso-DAP-containing actinomycetes, only Actinomadura species have non-fragmenting mycelium and display the same type of aerial mycelium formation and sporulation as strain 2966."}, "[3]": {"system": "Actinomadura hydroxylase", "experiment": "Conversion of compactin to pravastatin by cell free extracts of Actinomadura: NADH versus NADPH as H+ donor", "format": "biochemical, Actinomadura ATCC 55678", "details": "for PV: 160 μl cell free extract, 0.26 mM H+ donor, 0.23 mM compactin, 30° C.", "procedure": "The HPLC conditions used were a 3 μm Lichrospher 100 RP-18 column (obtained from EM Separations Technology, Gibbstown, N.J.); Mobile Phase A: 2.5 g NaH2PO4 in 800 ml Milli-Q water, add 200 ml acetonitrile and 110 ml methanol, adjust pH to 2.5 with 85% H3PO4; Mobile Phase B: mixture of 200 ml water, 800 ml acetonitrile, 110 ml methanol and 1 ml 85% H3PO4; a 10 μl injection volume; a 1 ml/min. flow rate; and detection at UV 237 nm. The gradient table was: A cell free extract of Actinomadura was obtained by growing a 150 ml culture of Actinomadura ATCC 55678 for 2 days in YM medium as described in Example 1. The cells were harvested by centrifugation at 15,000 rpm for 30 min. […] Cells were harvested by centrifugation, washed twice with cold water and once with buffer A ([…] Tris-HCl buffer, pH 7.4, supplemented with 20% glycerol and 2 mM DTT). The cells were resuspended in 5 ml buffer A and stored at −80° C. The cell suspension was later thawed and disrupted in a French Press. The homogenate was centrifugated at 30,000 rpm for 60 min. The supernatant was stored at −80° C. as cell free extract. […] A control of buffer A without cell free extract was included. The amount of pravastatin was measured by HPLC as described in Example 1."}, "[4]": {"system": "blood cholesterol level", "experiment": "Treating high blood cholesterol levels", "format": "in vivo", "details": "human patient; 20 mg orally, pill, twice a day, 3 months", "procedure": "This example illustrates a method for lowering the cholesterol level in a human with pravastatin derived from an Actinomadura hydroxylase that converts compactin to pravastatin. The patient is given 20 mg of this pravastatin orally, in the form of a pill, twice a day. Administration is carried out for a period of 3 months."}, "[5]": {"molecular_target": "T1, 3-hydroxy-3-methylglutaryl (HMG)-CoA reductase (Homo sapiens, UniProt P04035)", "T1 sequence (P04035 1-888)": "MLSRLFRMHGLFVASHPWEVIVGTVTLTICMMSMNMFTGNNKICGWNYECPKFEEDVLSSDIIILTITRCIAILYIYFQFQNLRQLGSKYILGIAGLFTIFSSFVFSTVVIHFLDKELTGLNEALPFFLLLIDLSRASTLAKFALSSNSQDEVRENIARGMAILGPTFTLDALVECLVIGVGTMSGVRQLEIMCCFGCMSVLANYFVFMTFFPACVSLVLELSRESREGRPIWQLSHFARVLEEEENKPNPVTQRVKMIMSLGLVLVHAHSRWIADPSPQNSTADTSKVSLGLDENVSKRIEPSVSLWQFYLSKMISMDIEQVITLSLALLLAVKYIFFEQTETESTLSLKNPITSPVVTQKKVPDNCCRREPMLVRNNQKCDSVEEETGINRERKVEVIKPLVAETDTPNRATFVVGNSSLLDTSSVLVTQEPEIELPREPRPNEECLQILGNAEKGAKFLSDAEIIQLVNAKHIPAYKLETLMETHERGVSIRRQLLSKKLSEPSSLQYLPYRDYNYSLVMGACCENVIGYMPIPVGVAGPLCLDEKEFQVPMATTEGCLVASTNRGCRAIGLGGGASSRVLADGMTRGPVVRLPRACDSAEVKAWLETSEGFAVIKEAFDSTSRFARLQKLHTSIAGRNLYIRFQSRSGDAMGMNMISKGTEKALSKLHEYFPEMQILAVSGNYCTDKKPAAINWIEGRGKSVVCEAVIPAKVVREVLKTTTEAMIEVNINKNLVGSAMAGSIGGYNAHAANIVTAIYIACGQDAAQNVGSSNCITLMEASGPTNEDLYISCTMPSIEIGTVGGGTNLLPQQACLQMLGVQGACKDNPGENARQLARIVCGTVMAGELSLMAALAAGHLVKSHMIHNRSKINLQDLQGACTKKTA", "details": "have been reported; cited from earlier work"}, "[6]": {"system": "fungi", "details": "Serizawa et al., J. Antibiotics 36:887-891 (1983); cited from earlier work"}, "[7]": {"details": "Actinomadura cell free extracts, alone or in combination"}, "[8]": {"details": "Table 10, CFE Uninduced, combination MgCl2 2.4 mM, ATP 1.9 mM, ascb 12 mM, ATP alone 3.8 mM, ascb alone 23 mM"}, "[9]": {"details": "Table 9, 60 min, 0.72 mM NADPH, 0.2 mM compactin, 2.4 mM MgCl2, 0.09 mM FeSO4, 0.1 mM FeCl3, 1.9 mM ATP and 12 mM ascorbic acid"}, "[10]": {"details": "Table 9, 60 min, 0.72 mM NADPH, 0.2 mM compactin, same factor concentrations"}}, "note": "Where two headings read alike, the source gives them in different places.", "data": [{"compound": "O=C1O[C@H]([C@@H](O)CO)C(O)=C1O", "note": "[ascb, ascorbic acid]", "values": [{"measurement": "stimulation of the enzymatic activity of the agent (conversion of compactin to pravastatin)", "setting": "[1]; [7]", "value": "stimulate conversion of compactin to pravastatin"}, {"measurement": "PV (μg/min/g)", "setting": "[1]; [8]", "value": 18, "unit": "µg/min/g"}, {"measurement": "PV (μg/ml)", "setting": "[1]; [8]", "value": 8.3, "unit": "µg/mL"}]}, {"compound": "penicillin", "values": [{"measurement": "sensitivity of strain 2966 to antibiotic", "setting": "[2]", "value": "resistance"}]}, {"compound": "NC(=O)C1=CN([C@@H]2O[C@H](COP(=O)(O)OP(=O)(O)OC[C@H]3O[C@@H](n4cnc5c(N)ncnc54)[C@H](OP(=O)(O)O)[C@@H]3O)[C@@H](O)[C@H]2O)C=CC1", "note": "[NADPH]", "values": [{"measurement": "PV", "setting": "[3]; 6 hours", "value": 12.8, "unit": "µg/mL"}, {"measurement": "PV", "setting": "[3]; 21 hours", "value": 11.9, "unit": "µg/mL"}, {"measurement": "enzymatic conversion of compactin to pravastatin, comparison of H+ donors", "setting": "[3]; cell free extracts", "value": "better with NADPH as a H^+ donor than with NADH"}]}, {"compound": "Cc1cc2nc3c(=O)[nH]c(=O)nc-3n(C[C@H](O)[C@H](O)[C@H](O)COP(=O)(O)OP(=O)(O)OC[C@H]3O[C@@H](n4cnc5c(N)ncnc54)[C@H](O)[C@@H]3O)c2cc1C", "note": "[FAD]", "values": [{"measurement": "stimulation of the enzymatic activity of the agent (conversion of compactin to pravastatin)", "setting": "[1]", "value": "do not stimulate enzymatic activity"}]}, {"compound": "O=S(=O)([O-])[O-].[Fe+2]", "note": "[FeSO4]", "values": [{"measurement": "PV (μg/ml)", "setting": "[1]; [9]", "value": 2.3, "unit": "µg/mL"}, {"measurement": "PV (μg/min/g)", "setting": "[1]; [10]", "value": 6.4, "unit": "µg/min/g"}, {"measurement": "CP", "setting": "[1]; [10]", "value": 64.3, "unit": "µg/mL"}]}, {"compound": "CC[C@H](C)C(=O)O[C@H]1C[C@H](O)C=C2C=C[C@H](C)[C@H](CC[C@@H](O)C[C@@H](O)CC(=O)O)[C@H]21", "note": "[pravastatin]", "values": [{"measurement": "blood cholesterol level", "setting": "[4]", "value": "reduction of the patient's blood cholesterol level"}, {"measurement": "inhibition of HMG-CoA reductase", "setting": "[5]", "value": "competitive inhibitors"}]}, {"compound": "[Cl-].[Cl-].[Co+2]", "note": "[CoCl2]", "values": [{"measurement": "stimulation of the enzymatic activity of the agent (conversion of compactin to pravastatin)", "setting": "[1]", "value": "do not stimulate enzymatic activity"}]}, {"compound": "[Cl][Ni][Cl]", "note": "[NiCl2]", "values": [{"measurement": "stimulation of the enzymatic activity of the agent (conversion of compactin to pravastatin)", "setting": "[1]; [7]", "value": "do not stimulate enzymatic activity"}]}, {"compound": "NC(=O)C1=CN([C@@H]2O[C@H](COP(=O)(O)OP(=O)(O)OC[C@H]3O[C@@H](n4cnc5c(N)ncnc54)[C@H](O)[C@@H]3O)[C@@H](O)[C@H]2O)C=CC1", "note": "[NADH]", "values": [{"measurement": "PV", "setting": "[3]; 5 hours", "value": 2.8, "unit": "µg/mL"}, {"measurement": "PV", "setting": "[3]; 21 hours", "value": 2.8, "unit": "µg/mL"}]}, {"compound": "Nc1ncnc2c1ncn2[C@@H]1O[C@H](COP(=O)(O)OP(=O)(O)OP(=O)(O)O)[C@@H](O)[C@H]1O", "note": "[ATP]", "values": [{"measurement": "stimulation of the enzymatic activity of the agent (conversion of compactin to pravastatin)", "setting": "[1]; [7]", "value": "stimulate conversion of compactin to pravastatin"}, {"measurement": "PV (μg/min/g)", "setting": "[1]; [8]", "value": 17, "unit": "µg/min/g"}, {"measurement": "PV (μg/ml)", "setting": "[1]; [8]", "value": 7.5, "unit": "µg/mL"}]}, {"compound": "O=C(O)CCC(=O)C(=O)O", "note": "[∝-ketoglutarate]", "values": [{"measurement": "stimulation of the enzymatic activity of the agent (conversion of compactin to pravastatin)", "setting": "[1]; [7]", "value": "do not stimulate enzymatic activity"}]}, {"compound": "compactin", "values": [{"measurement": "activity against fungi", "setting": "[6]", "value": "anti-fungal activity"}]}, {"compound": "[Cl][Fe]([Cl])[Cl]", "note": "[FeCl3]", "values": [{"measurement": "PV (μg/ml)", "setting": "[1]; [9]", "value": 3.3, "unit": "µg/mL"}, {"measurement": "PV (μg/min/g)", "setting": "[1]; [10]", "value": 6.6, "unit": "µg/min/g"}, {"measurement": "CP", "setting": "[1]; [10]", "value": 57.9, "unit": "µg/mL"}]}, {"compound": "Cc1cc2nc3c(=O)[nH]c(=O)nc-3n(C[C@H](O)[C@H](O)[C@H](O)COP(=O)(O)O)c2cc1C", "note": "[FMN]", "values": [{"measurement": "stimulation of the enzymatic activity of the agent (conversion of compactin to pravastatin)", "setting": "[1]", "value": "do not stimulate enzymatic activity"}]}, {"compound": "[Cl-].[Cl-].[Mg+2]", "note": "[MgCl2]", "values": [{"measurement": "stimulation of the enzymatic activity of the agent (conversion of compactin to pravastatin)", "setting": "[1]; [7]", "value": "stimulate conversion of compactin to pravastatin"}, {"measurement": "PV (μg/ml)", "setting": "[1]; [9]", "value": 4.4, "unit": "µg/mL"}, {"measurement": "PV (μg/min/g)", "setting": "[1]; [10]", "value": 8.7, "unit": "µg/min/g"}, {"measurement": "CP", "setting": "[1]; [10]", "value": 60.2, "unit": "µg/mL"}]}, {"compound": "O=S(=O)([O-])[O-].[Cu+2]", "note": "[CuSo4]", "values": [{"measurement": "stimulation of the enzymatic activity of the agent (conversion of compactin to pravastatin)", "setting": "[1]; [7]", "value": "do not stimulate enzymatic activity"}]}, {"compound": "neomycin", "values": [{"measurement": "sensitivity of strain 2966 to antibiotic", "setting": "[2]", "value": "inhibited"}]}]}
